In patent US20240344026A1, “Methods to Activate Gamma Delta T cells for Antibody Dependent Cellular Cytotoxicity” (Intellistem, Inc., priority 2023, published 2024):

Columns and labels:
Type in all cases: cell-based
Gamma Delta T cells [1] = experiment: Proliferation rate of Gamma Delta T cells on ex vivo stimulation of MNC; conditions: changed stimulant vs standard protocol; zoledronate pulse 100 μM 4 h (day 7); IL-15 10 ng/ml, IL-2 1000 U/ml
Method: Cell cultures were performed with peripheral blood obtained from healthy adult donors. Peripheral blood mononuclear cells (MNC) were isolated by density gradient centrifugation with Biocoll (Biochrom, Darmstand, Germany/Bio&SELL, Feucht, Germany). MNC were incubated up to 17 days at 37° C. and 5% CO2.
For cultivation, MNC at a concentration of 5.0E+05/ml were cultured in 50 ml cell culture flasks (Sarstedt, Nuembrecht, Germany) using medium consisting of OpTmizer™ CTSTM T-Cell Expansion Basal Medium, OpTmizer™ CTSTM T-Cell Expansion Supplement (Gibco/Thermo Fisher, Waltham, USA) and 1% 200 mM L-Glutamin. 10 μM Zoledronate were added on day 0 and 1000 U/ml IL-2 were added on day 2. On days 4, 7, 9, 11 and 14 half of the medium was removed and replaced by fresh medium containing 2× 1000 U/ml IL-2 for a final concentration of 1000 U/ml. Cells were not split at any time. From day 4 on cell culture flasks were shaken at 250 rpm. For pulsing zoledronate, 100 μM Zol were added on day 0. […]
Cell counts and cell viability were established using a hemocytometer and the trypan blue exclusion method. Cell count and proliferation rate of Gamma Delta T cells was calculated on the basis of the cell number of the MNC and the percentage of Gamma Delta T cells on the MNC determined by flow cytometry. […]

[2] = system: cytoplasmic perforin of Gamma Delta T cells; experiment: Cytoplasmic perforin staining, flow cytometry
Method: To evaluate the activity of stimulated Gamma Delta T cells, cytoplasmic perforin and IFN γ were stained every three to four days and Δ MFI was measured by flow cytometry.

tumor cell line Daudi = experiment: Cytotoxicity assay
Excerpt: To directly determine the anti-tumor activity of Gamma Delta T cells against the tumor cell line Daudi, the present inventors performed a cytotoxicity assay on day 10 of cultivation comparing the prior art (R10F) and preferred embodiment of the present invention (Ko-Op). For this, Alpha Beta T cells and NKp46+ cells were paramagnetically depleted from the cell suspension in order to isolate the Gamma Delta T cells on day 10. The cell composition before and after depletion is shown FIG. 2A.
The present inventors next performed the cytotoxicity assay with the different cultivated MNC. To be able to compare the methods more clearly, the present inventors calculated the lytic units per 10^6 effector cells.

Gamma Delta T cells [3] = experiment: Differentiation of Gamma Delta T cells by CD45RA and CD27 expression
Excerpt: The present inventors divided the T cells into naive, central memory, effector memory and terminally differentiated Gamma Delta T cells based on expression of CD45RA and CD27.

[4] = changed stimulant vs standard protocol, without combination of modifications
[5] = changed stimulant vs standard protocol
[6] = IL-15 instead of IL-2, combined with pulsing zoledronate

Compound | proliferation rate of Gamma Delta T cells (Gamma Delta T cells [1]) | cytoplasmic perforin [2, 4] | lytic units per 10^6 effector cells (tumor cell line Daudi; without therapeutic antibodies, vs standard protocol) | percentage of central memory Gamma Delta T cells (TCM) (Gamma Delta T cells [3]; [5]) | cytoplasmic perforin ([2]; IL-15 instead of IL-2, with zoledronate pulse) | lytic units per 10^6 effector cells (tumor cell line Daudi; with zoledronate pulse, without antibody, vs zoledronate pulse without modification of the interleukins) | percentage of effector Gamma Delta T cells (TEM) (Gamma Delta T cells [3]; IL-15 instead of IL-2) | percentage of central memory Gamma Delta T cells (TCM) (Gamma Delta T cells [3]; [6]) | percentage of effector Gamma Delta T cells (TEM) (Gamma Delta T cells [3]; [6])
O=P(O)(O)C(O)(Cn1ccnc1)P(=O)(O)O [zoledronate, reference compound] | significant lower proliferation rate | did not lead to any significant change | significant increase | more TCM | – | – | – | – | –
IL-15: interleukin used at 10 ng/ml in place of IL-2 | significantly lower | significant reduction | – | elevated percentage | significant reduction | an increase | reduced percentage | elevated percentage | reduced percentage
